Active and inactive are the calls of the source. The rule behind the calls is not given here.
Key:
[1] = Metabolic stability in human liver microsomes assessed as hepatic extraction ratio; type: ADME, Microsome; settings: read-out: ERH
[2] = Volume of distribution at steady state in Wistar rat at 3 mg/kg, iv; type: ADME, organism-based; settings: in vivo, read-out: Vdss
[3] = AUC in Wistar rat at 3 mg/kg, po; type: ADME, organism-based; settings: in vivo
[4] = AUC in Wistar rat at 10 mg/kg, po; type: ADME, organism-based; settings: in vivo
[5] = AUC in Wistar rat at 300 mg/kg, po; type: ADME, organism-based; settings: in vivo
[6] = Half life in Wistar rat at 10 mg/kg, po; type: ADME, organism-based; settings: in vivo
[7] = Half life in Wistar rat at 100 mg/kg, po; type: ADME, organism-based; settings: in vivo
[8] = Oral bioavailability in Wistar rat at 300 mg/kg; type: ADME, organism-based; settings: in vivo
[9] = AUC in Wistar rat plasma at 10 mg/kg, po; type: ADME, organism-based
[10] = Ratio of AUC in Brain to plasma in Wistar rat […] at 10 mg/kg, po; type: ADME, organism-based; settings: read-out: Ratio AUC
[11] = target: T1, Bile acid receptor (Rattus norvegicus) (UniProt Q62735); experiment: Agonist activity at FXR in rat primary hepatocytes assessed as increase in BSEP mRNA level incubated for 24 hrs by qRT-PCR analysis relative to tropifexor; type: cell-based
T1 sequence (whole entry): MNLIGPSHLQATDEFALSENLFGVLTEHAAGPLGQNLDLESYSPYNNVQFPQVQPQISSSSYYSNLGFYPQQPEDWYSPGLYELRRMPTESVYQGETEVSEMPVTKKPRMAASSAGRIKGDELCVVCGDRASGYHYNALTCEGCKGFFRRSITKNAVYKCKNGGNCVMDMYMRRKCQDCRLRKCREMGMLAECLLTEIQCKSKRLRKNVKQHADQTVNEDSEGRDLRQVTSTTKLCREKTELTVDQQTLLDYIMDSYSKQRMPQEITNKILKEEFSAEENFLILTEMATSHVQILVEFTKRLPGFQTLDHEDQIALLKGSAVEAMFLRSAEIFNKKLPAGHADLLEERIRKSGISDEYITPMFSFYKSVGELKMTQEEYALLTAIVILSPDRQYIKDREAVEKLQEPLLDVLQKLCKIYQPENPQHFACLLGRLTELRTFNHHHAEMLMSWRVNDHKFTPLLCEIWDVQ

[12] = target: T2, G-protein coupled bile acid receptor 1 (Homo sapiens) (UniProt Q8TDU6); experiment: Agonist activity at human GPBAR1 expressed in Jurkat cells assessed as increase in intracellular cAMP level incubated for 1 hr by fluorescence based assay relative to control; type: functional, cell-based
T2 sequence (whole entry): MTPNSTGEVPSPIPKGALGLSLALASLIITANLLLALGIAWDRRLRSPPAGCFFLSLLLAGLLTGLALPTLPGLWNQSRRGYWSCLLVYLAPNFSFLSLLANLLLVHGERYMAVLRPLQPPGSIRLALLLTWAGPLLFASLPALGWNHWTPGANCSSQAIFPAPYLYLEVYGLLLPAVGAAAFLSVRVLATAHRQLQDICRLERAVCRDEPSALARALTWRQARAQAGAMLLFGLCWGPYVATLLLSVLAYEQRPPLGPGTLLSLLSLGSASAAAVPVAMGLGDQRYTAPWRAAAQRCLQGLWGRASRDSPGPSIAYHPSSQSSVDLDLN

Glucocorticoid receptor = target: T3, Glucocorticoid receptor (Homo sapiens, UniProt P04150); experiment: Agonist activity at GAL4-fused Glucocorticoid receptor (unknown origin) expressed in HEK293T cells incubated for 24 by BrightGlo reagent based assay; type: cell-based
T3 sequence (P04150 whole entry): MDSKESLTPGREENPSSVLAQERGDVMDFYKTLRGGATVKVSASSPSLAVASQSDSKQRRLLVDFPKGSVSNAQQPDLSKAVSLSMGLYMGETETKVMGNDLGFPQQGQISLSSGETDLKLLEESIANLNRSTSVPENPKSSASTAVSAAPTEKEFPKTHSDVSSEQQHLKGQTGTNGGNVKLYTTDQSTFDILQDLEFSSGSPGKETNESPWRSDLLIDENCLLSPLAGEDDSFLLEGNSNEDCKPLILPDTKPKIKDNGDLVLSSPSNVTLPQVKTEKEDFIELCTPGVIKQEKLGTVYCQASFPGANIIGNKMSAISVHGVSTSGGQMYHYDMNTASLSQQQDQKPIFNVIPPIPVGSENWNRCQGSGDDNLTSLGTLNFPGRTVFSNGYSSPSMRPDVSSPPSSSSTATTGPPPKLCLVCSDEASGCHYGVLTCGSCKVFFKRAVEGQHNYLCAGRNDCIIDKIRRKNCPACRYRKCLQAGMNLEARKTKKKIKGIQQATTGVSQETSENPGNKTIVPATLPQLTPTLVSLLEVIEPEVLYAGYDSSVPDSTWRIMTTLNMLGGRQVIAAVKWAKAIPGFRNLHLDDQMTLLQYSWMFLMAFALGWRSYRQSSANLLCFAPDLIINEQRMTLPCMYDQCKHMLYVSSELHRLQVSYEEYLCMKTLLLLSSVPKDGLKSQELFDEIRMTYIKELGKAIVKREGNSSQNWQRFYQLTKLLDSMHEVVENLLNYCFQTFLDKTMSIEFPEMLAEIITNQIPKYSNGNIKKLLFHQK

Rattus norvegicus [13] = experiment: In-vivo agonist activity at FXR in orally dosed Han Wistar rat assessed as upregulation of FGF15 mRNA level in ileum administered via oral gavage once daily for 14 days measured post last dose by qRT-PCR analysis; type: functional, organism-based
Rattus norvegicus [14] = experiment: In-vivo agonist activity at FXR in orally dosed Han Wistar rat assessed as repression of CYP7a1 mRNA level in liver administered via oral gavage once daily for 14 days measured post last dose by qRT-PCR analysis; type: functional, organism-based
Rattus norvegicus [15] = experiment: In-vivo agonist activity at FXR in Han Wistar rat assessed as upregulation of FGF15 protein level in serum at 1.5 mg/kg administered via oral gavage once daily for 14 days measured 10 hrs post last dose relative to control; type: functional
Rattus norvegicus [16] = experiment: In-vivo agonist activity at FXR in Han Wistar rat assessed as upregulation of FGF15 mRNA level in ileum at 1.5 mg/kg administered via oral gavage once daily for 14 days measured 10 hrs post last dose by qRT-PCR analysis relative to control; type: functional
Mus musculus [17] = experiment: Anti Steato-hepatitic activity in STZ/HFD induced oral dosed C57BL/6J mouse STAM model assessed as reduction in microvesicular fat deposition administered via oral gavage once daily for 3 weeks and measured on 9 week by H and E staining based assay; type: functional, organism-based
Mus musculus [18] = experiment: Anti Steato-hepatitic activity in STZ/HFD induced oral dosed C57BL/6J mouse STAM model assessed as reduction in macrovesicular fat deposition administered via oral gavage once daily for 3 weeks and measured on 9 week by H and E staining based assay; type: functional, organism-based
Mus musculus [19] = species on record: Mus musculus; experiment: Anti Steato-hepatitic activity in C57BL/6J mouse STAM model assessed as change in Aldh1l2 gene level in liver; type: functional, organism-based
[20] = Clearance in rabbit at 5 mg/kg, iv; type: ADME, organism-based, Oryctolagus cuniculus; settings: in vivo
[21] = Clearance in dog at 0.5 mg/kg, iv; type: ADME, organism-based, Canis lupus familiaris; settings: in vivo

hepatic extraction ratio [1]: < 0.21
Vd [2]: 0.8 L/kg
AUC [3]: 9.2 µM·h
AUC [4]: 25.4 µM·h
AUC [5]: 1040 µM·h
half-life [6]: 5.7 h
half-life [7]: 5.6 h
bioavailability [8]: 72%
AUC [9]: 24.5 µM·h
Kp [10]: 0.05
Efficacy [12]: 13%
EC50 (Glucocorticoid receptor): > 10 µM
clearance [20]: 5.6 mL/min/kg
clearance [21]: 3.6 mL/min/kg
Compound: Cn1nc(C(=O)N(Cc2ccccc2)Cc2ccc(C(=O)O)cc2)c2c1-c1cc(Cl)ccc1OC2 [NIDUFEXOR]
Activity [11]: 3.7%
Activity (Rattus norvegicus [13]): Dose-dependent effect
Activity (Rattus norvegicus [14]): Active
fold change (FC) (Rattus norvegicus [15]): 3.5
fold change (FC) (Rattus norvegicus [16]): 30
Activity (Mus musculus [17]): Dose-dependent effect
Activity (Mus musculus [18]): Dose-dependent effect
Activity (Mus musculus [19]): Active

Reference: ChEMBL document CHEMBL4402557, “Nidufexor (LMB763), a Novel FXR Modulator for the Treatment of Nonalcoholic Steatohepatitis” (J Med Chem, 2020)
